Measurements from US5316767A, “Whitening cosmetic composition” (priority 1990, dated 1994).
Converted amounts (≈) assume the structure as drawn. Numbered stars: 1 amine (or outer) side, 2 acyl side, 3 side chain; on linkers, the order of the positions; unused ones are H or OH. Bridge positions count the residues as written; N and C are the ends. Square brackets hold non-standard residues; d marks the D form. Peptide text beside a SMILES is read from it. I, II: the chains in the order shown. γGlu = O=C(O)[C@H](CCC(=O)[*:2])N[*:1]

Columns and labels:
physchem [1] = details: pH 6.5
physchem [2] = details: water
physchem [3] = details: pH 6.5; remark: listed apart in the source
B16-C melanoma cells = assay: Melanin formation inhibitory activity in B16-C melanoma cells (Experiment 2); assay type: cell-based, mouse
Experimental: After 2 ml of MEM medium (manufactured by Nissui Pharmaceutical Co.) (serum concentration of 5%) was added in a 6-well culture plate, mouse-derived B16-C melanoma cells were plated at 2×10^5 cells/well and test compounds were then separately added. B16-C melanoma cells were cultured at 37° C. in 5% CO2 incubator. On Day 3 and Day 5, the medium was exchanged and at the same time, the test compounds were separately added. On Day 7, the medium was removed. The cells were trypsinized and resuspended in PBS and pelleted by centrifugation. […] The protein content in the cells and the amount of melanin formed were determined, whereby the amount of melanin formed (μg) per protein content (mg) were calculated. The protein content and the amount of melanin formed were quantitatively determined by the method of Bradford et al. [Analytical Biochemistry, 72, 248-254 (1976)] and by measuring absorbance of the test solution at 470 nm [Cancer Research, 45, 1474-1478 (1985)], respectively.

[4] = Heat stability: residual rate after heating at 100° C. for 20 minutes; details: pH 6.5
[5] = Storage stability: residual rate after allowing to stand at 40° C. for 30 days
[6] = 0.25 mM, first series (nothing added: 211.4 ± 11.45)
[7] = 0.5 mM, first series (nothing added: 211.4 ± 11.45)
[8] = 1.0 mM, first series (nothing added: 211.4 ± 11.45)

remaining at 20 min, 10000 µM (physchem [1]) | solubility (physchem [2]) | remaining at 720 h, 10000 µM (physchem [3]) | SMILES | Melanin Content/Protein Content (B16-C melanoma cells; [6]) | Melanin Content/Protein Content (B16-C melanoma cells; [7]) | Melanin Content/Protein Content (B16-C melanoma cells; [8]) | solubility (Water solubility) | Activity for inhibiting melanin formation as compared with γ-L-glutamyl-L-cysteine disulfide and oxidized glutathione (B16-C melanoma cells; Table 3) | remaining at 20 min, 10000 µM [4] | Coloration ([5]; 40° C., 30 days, pH 6.5, 10 mM) | remaining at 720 h, 10000 µM ([5]; pH 6.5) | Melanin Content/Protein Content (B16-C melanoma cells; 1.0 mM, second series (nothing added: 330.1 ± 22.5)) | Melanin Content/Protein Content (B16-C melanoma cells; 2.0 mM, second series (nothing added: 330.1 ± 22.5)) | Inhibition of melanin formation in B16-C melanoma cells (B16-C melanoma cells; Table 3) | Melanin Content/Protein Content (B16-C melanoma cells; 2.0 mM, first series (nothing added: 211.4 ± 11.45))
100% | 142 mg/mL (≈ 520 mM) | 100% | OC[C@H]1O[C@@H](Oc2ccc(O)cc2)[C@H](O)[C@@H](O)[C@@H]1O [Arbutin] | 108.7 ± 13.04 µg/mg | 89.2 ± 13.48 µg/mg | growth inhibition |  |  |  |  |  |  |  |  | 
100% | > 200 mg/mL | 100% | CC(=O)N[C@@H](CCC(=O)N[C@@H](CSSC[C@H](NC(=O)CC[C@H](NC(C)=O)C(=O)O)C(=O)NCC(=O)O)C(=O)NCC(=O)O)C(=O)O [N,N'-diacetyl-oxidized glutathione, N,N'-diacetyl oxidized glutathione] (I: Ac-[γGlu]-Cys-Gly-OH / II: Ac-[γGlu]-Cys-Gly-OH; disulfide I:2-II:2) |  |  |  |  |  |  |  |  | 221.4 ± 18.6 µg/mg | 198.1 ± 8.5 µg/mg | significantly inhibiting melanin formation | 
100% | > 554 mg/mL | 100% | N[C@@H](CCC(=O)N[C@@H](CSSC[C@H](NC(=O)CC[C@H](N)C(=O)O)C(=O)O)C(=O)O)C(=O)O [γ-L-glutamyl-L-cysteine disulfide] |  | 189.3 ± 10.56 µg/mg | 155.6 ± 7.68 µg/mg |  |  |  |  |  |  |  | significantly inhibiting melanin formation | 154.7 ± 12.16 µg/mg
100% | > 742 mg/mL | 100% | N[C@@H](CCC(=O)N[C@@H](CSSC[C@H](N)C(=O)O)C(=O)O)C(=O)O [γ-L-glutamyl-L-cystine] |  |  |  |  |  |  |  |  |  |  |  | 

More lines, now with the values behind:

SMILES | remaining at 20 min, 10000 µM (physchem [1]) | solubility (physchem [2]) | remaining at 720 h, 10000 µM (physchem [3]) | Melanin Content/Protein Content (B16-C melanoma cells; [6]) | Melanin Content/Protein Content (B16-C melanoma cells; [7]) | Melanin Content/Protein Content (B16-C melanoma cells; [8]) | solubility (Water solubility) | Activity for inhibiting melanin formation as compared with γ-L-glutamyl-L-cysteine disulfide and oxidized glutathione (B16-C melanoma cells; Table 3) | remaining at 20 min, 10000 µM [4] | Coloration ([5]; 40° C., 30 days, pH 6.5, 10 mM) | remaining at 720 h, 10000 µM ([5]; pH 6.5) | Melanin Content/Protein Content (B16-C melanoma cells; 1.0 mM, second series (nothing added: 330.1 ± 22.5)) | Melanin Content/Protein Content (B16-C melanoma cells; 2.0 mM, second series (nothing added: 330.1 ± 22.5)) | Inhibition of melanin formation in B16-C melanoma cells (B16-C melanoma cells; Table 3) | Melanin Content/Protein Content (B16-C melanoma cells; 2.0 mM, first series (nothing added: 211.4 ± 11.45))
N[C@@H](CCC(=O)N[C@@H](CS)C(=O)NCC(=O)O)C(=O)O [Glutathione, γ-L-glutamyl-L-cysteinyl-glycine] | 70% |  | 0% |  |  |  |  |  |  |  |  |  |  |  | 
O=c1cc(CO)occ1O [Kojic acid] |  |  |  | 233.7 ± 14.37 µg/mg | 202.4 ± 11.49 µg/mg | 188.6 ± 9.93 µg/mg | 48.3 mg/mL (≈ 340 mM) | poorer | 100% | colored | 100% |  |  |  | 
